Measurements: US8895568B2, “Compositions comprising substituted pteridines as agrochemicals” (Dow AgroSciences LLC, priority 2009, dated 2014)
Like-named read-outs stand apart in the source and are kept apart here.

What was measured:
Format in all cases: in vivo
[1] = tested on: Magnaporthe grisea; assay: whole plant or invertebrate; conditions: Pyricularia oryzae, foliar, read-out: PYRIOR percent control
[2] = tested on: Puccinia recondita tritici; assay: Leaf Rust of Wheat (PUCCRT), foliar spray, percent disease control; conditions: tested at 8.3 ppm
Description: The activity of the compounds as effective fungicides was determined by applying the compounds to plants and observing control of fungal disease. The compounds were formulated at 200 ppm in 10 vol. % acetone plus 90 vol. % Triton X water (deionized water 99.99 wt %+0.01 wt % Triton X100), giving a “formulated test compound.” In a few cases, compounds were formulated at 75 or 8.3 ppm rather than 200 ppm in 10 vol. % acetone plus 90 vol. % Triton X water (deionized water 99.99 wt. %+0.01 wt. % Triton X100), giving a “formulated test compound.” Formulated test compounds were applied to plants using a turn table sprayer fitted with two opposing air atomization nozzles which delivered approximately 1500 L/ha of spray volume. All plants were inoculated with spores of the fungus the day after treatment, then incubated in an environment conducive to disease development. Disease severity was evaluated 4 to 15 days later, depending on the disease and the speed of disease development. The following experiments were performed in the laboratory to determine the fungicidal efficacy of the compounds of the invention. […] Each pot contained 3-8 seedlings. These plants were sprayed until wet with the formulated test compounds. On the following day, the leaves were inoculated with an aqueous spore suspension of Puccinia recondita tritici and the plants were kept in high humidity overnight to permit spores to germinate and infect the leaf. The plants were then transferred to a greenhouse until disease developed on untreated control plants. […] The effectiveness of the test compounds at controlling disease when sprayed on leaves was determined by assessing the severity of disease on treated plants, then converting the severity to percent control based on the level of disease on untreated, inoculated plants. Data are the level (in percent) at which the given disease was controlled when the given compound was applied to the foliage of the plants at 200 ppm. In a few cases (noted in the table) the compound was applied to the plants at 75 ppm or 8.3 ppm.

[3] = tested on: Leptosphaeria nodorum; assay: Glume Blotch of Wheat (LEPTNO), foliar spray, percent disease control; conditions: Parastagonospora nodorum, tested at 75 ppm
Description: The activity of the compounds as effective fungicides was determined by applying the compounds to plants and observing control of fungal disease. The compounds were formulated at 200 ppm in 10 vol. % acetone plus 90 vol. % Triton X water (deionized water 99.99 wt %+0.01 wt % Triton X100), giving a “formulated test compound.” In a few cases, compounds were formulated at 75 or 8.3 ppm rather than 200 ppm in 10 vol. % acetone plus 90 vol. % Triton X water (deionized water 99.99 wt. %+0.01 wt. % Triton X100), giving a “formulated test compound.” Formulated test compounds were applied to plants using a turn table sprayer fitted with two opposing air atomization nozzles which delivered approximately 1500 L/ha of spray volume. All plants were inoculated with spores of the fungus the day after treatment, then incubated in an environment conducive to disease development. Disease severity was evaluated 4 to 15 days later, depending on the disease and the speed of disease development. The following experiments were performed in the laboratory to determine the fungicidal efficacy of the compounds of the invention. […] Each pot contained 3-20 seedlings. These plants were sprayed until wet with the formulated test compound. On the following day, the leaves were inoculated with an aqueous spore suspension of Leptosphaeria nodorum and the plants were kept in high humidity (one day in a dark dew chamber followed by four days in a lighted dew chamber) to permit spores to germinate and infect the leaf. The plants were then transferred to a greenhouse until disease developed on untreated control plants. […] The effectiveness of the test compounds at controlling disease when sprayed on leaves was determined by assessing the severity of disease on treated plants, then converting the severity to percent control based on the level of disease on untreated, inoculated plants. Data are the level (in percent) at which the given disease was controlled when the given compound was applied to the foliage of the plants at 200 ppm. In a few cases (noted in the table) the compound was applied to the plants at 75 ppm or 8.3 ppm.

[4] = tested on: DROSME, AEDSAE, LAPHEG, or HELIVI; assay: Insecticidal activity, active if any of DROSME, AEDSAE, LAPHEG or HELIVI was controlled at 80% or more; conditions: read-out: >80% mortality on any insect species @ 4000 ppm
[5] = tested on: Colletotricum lagenarium; assay: Cucumber Anthracnose (COLLLA), foliar spray, percent disease control
[6] = tested on: Pseudoperonospora cubensis; assay: Cucumber Downy Mildew (PSPECU), foliar spray, percent disease control; conditions: read-out: PSPECU percent control
[7] = tested on: Cochliobolus sativus; assay: Spot Blotch of Wheat (COCHSA), foliar spray, percent disease control; conditions: Bipolaris sorokiniana, read-out: COCHSA percent control

SMILES	pest or weed control at 8.3 ppm [1] [%]	pest or weed control at 8.3 ppm [2] [%]	pest or weed control at 75 ppm [3] [%]	pest or weed control at 4000 ppm [4] [%]	pest or weed control at 200 µg/mL ([5]; foliar spray) [%]	pest or weed control at 200 µg/mL ([6]; foliar spray) [%]	pest or weed control at 200 µg/mL ([7]; foliar spray) [%]	further results
Clc1csc(Oc2ccc(CCNc3ncnc4nccnc34)cc2)n1 [Compound 31]	80 to 100	50 to 79	0 to 49	–	–	–	–	–
FC(F)(F)c1cnc2nc(Oc3ccc(CCNc4ncnc5nccnc45)cc3)sc2c1 [Compound 32]	50 to 79	50 to 79	0 to 49	–	–	–	–	–
COc1ccc(CCNc2ncnc3nccnc23)cc1 [Compound 45]	80 to 100	50 to 79	0 to 49	–	–	–	–	–
N#Cc1c(Cl)cncc1Oc1cccc(CCNc2ncnc3nccnc23)c1 [Compound 70]	50 to 79	50 to 79	0 to 49	–	–	–	–	–
Cc1ccnc(Cl)c1Oc1ccc(CCNc2ncnc3nccnc23)cc1 [Compound 98]	50 to 79	50 to 79	0 to 49	–	–	–	–	–
Cc1ccnc(Oc2ccc(CCNc3ncnc4nccnc34)cc2)c1F [Compound 99]	80 to 100	80 to 100	50 to 79	–	–	–	–	–
Fc1cc(Oc2ccc(C(F)(F)F)cn2)ccc1CCNc1ncnc2nccnc12 [Compound 105]	80 to 100	80 to 100	80 to 100	–	–	–	–	–
COc1ccc2c(c1)CC(Nc1ncnc3ncc(C)nc13)C2 (stereo not drawn) [Compound 116]	50 to 79	0 to 49	0 to 49	> 80	–	–	–	–
Fc1cnc(C(F)(F)F)c(F)c1Oc1ccc(CCNc2ncnc3ncc(Cl)nc23)cc1 [Compound 117]	80 to 100	50 to 79	50 to 79	> 80	–	–	–	–
CC(C)(C)OC(=O)c1ccc(Oc2ccc(CCNc3ncnc4nccnc34)cc2)cc1 [Compound 154]	80 to 100	80 to 100	80 to 100	–	–	–	–	–
CCCOc1cc(CCNc2ncnc3nccnc23)ccc1Oc1cc(C(C)(F)F)ccn1 [Compound 199]	–	–	–	> 80	–	–	–	pest or weed control at 200 µg/mL ([5]; foliar): 0 to 49%; pest or weed control at 200 µg/mL ([6]; foliar): 80 to 100%; pest or weed control at 200 µg/mL ([7]; foliar): 0 to 49%
Cc1nc2ncnc(NCCc3ccc(Oc4ncccc4C(F)(F)F)cc3)c2nc1C [Compound 200]	–	–	–	> 80	0 to 49	0 to 49	0 to 49	–
COC(=O)c1cnc(Oc2ccc(CCNc3ncnc4nccnc34)cc2)cc1C(F)(F)F [Compound 202]	–	–	–	> 80	0 to 49	80 to 100	0 to 49	–
CC(C)c1ccnc(Oc2ccc(CCNc3ncnc4nccnc34)cc2)c1 [Compound 203]	–	–	–	> 80	50 to 79	80 to 100	0 to 49	–
COc1cc(CCNc2ncnc3nccnc23)ccc1Oc1cc(C(C)C)ccn1 [Compound 204]	–	–	–	> 80	0 to 49	80 to 100	0 to 49	–
FC(F)(F)c1ccnc(Oc2ccc(CCOc3ncnc4nccnc34)cc2)c1 [Compound 206, 4-{2-[4-(4-Trifluoromethylpyridin-2-yloxy)-phenyl]-ethoxy}-pteridine]	–	0 to 49	0 to 49	–	–	–	–	–
FC(F)(F)c1ccnc(Oc2ccc(CCNc3ncnc4nccnc34)cc2Br)c1 [Compound 212, {2-[3-bromo-4-(4-trifluoromethylpyridin-2-yloxy)-phenyl]-ethyl}-pteridin-4-yl-amine]	–	–	–	> 80	80 to 100	80 to 100	50 to 79	–
COC(=O)c1cc(CCNc2ncnc3nccnc23)ccc1Oc1cc(C(F)(F)F)ccn1 [Compound 213, 5-[2-(Pteridin-4-ylamino)-ethyl]-2-(4-trifluoromethyl-pyridin-2-yloxy)-benzoic acid, methyl ester]	–	–	–	> 80	0 to 49	80 to 100	0 to 49	–
Cc1nc(NCCc2ccc(Oc3ncc(C(F)(F)F)cc3F)cc2)c2nc(C)c(C)nc2n1 [Compound 214]	–	–	–	> 80	0 to 49	0 to 49	0 to 49	–
Cc1nc(NCCc2ccc(Oc3cc(C(F)(F)F)ccn3)cc2)c2nc(C)c(C)nc2n1 [Compound 215]	–	–	–	> 80	0 to 49	80 to 100	0 to 49	–
Fc1cccc(Oc2ccc(CCNc3ncnc4nccnc34)cc2)c1C(F)(F)F [Compound 216]	–	–	–	> 80	0 to 49	80 to 100	0 to 49	–
Cc1nc(NCCc2ccc(Oc3cc(C(F)(F)F)ccn3)cc2)c2nc(C)c(C)nc2n1 [Compound 226]	0 to 49	0 to 49	0 to 49	–	–	–	–	–
FC(F)(F)c1ccnc(Oc2ccc(CCNc3ncnc4nccnc34)cc2C(F)(F)F)c1 [Compound 227]	–	80 to 100	80 to 100	–	–	–	–	–
CC1=CSc2cc(CCNc3ncnc4nccnc34)ccc2O1 [Compound 231]	–	–	–	> 80	0 to 49	0 to 49	0 to 49	–
FC(F)(F)COc1ccc(CCNc2ncnc3nccnc23)cn1 [Compound 232]	–	–	–	> 80	50 to 79	80 to 100	0 to 49	–
